Test results reported in US20170157212A1, “CDK MODULATORS AND METHODS FOR THE TREATMENT OF CANCER” (Salk Institute for Biological Studies, priority 2015, published 2017).
“Also recorded” adds a separate entry of the source.

What was measured:
[1] = molecular target: T1, affinity-purified CDK9/P-TEFb complex (Homo sapiens, UniProt P50750); assay: In vitro kinase assay: CDK9/P-TEFb phosphorylation of GST-CTD; type: biochemical; settings: affinity-purified FLAG-CDK9 kinase, immunoblot
T1 construct: FLAG; made in house
T1 sequence (P50750 whole entry): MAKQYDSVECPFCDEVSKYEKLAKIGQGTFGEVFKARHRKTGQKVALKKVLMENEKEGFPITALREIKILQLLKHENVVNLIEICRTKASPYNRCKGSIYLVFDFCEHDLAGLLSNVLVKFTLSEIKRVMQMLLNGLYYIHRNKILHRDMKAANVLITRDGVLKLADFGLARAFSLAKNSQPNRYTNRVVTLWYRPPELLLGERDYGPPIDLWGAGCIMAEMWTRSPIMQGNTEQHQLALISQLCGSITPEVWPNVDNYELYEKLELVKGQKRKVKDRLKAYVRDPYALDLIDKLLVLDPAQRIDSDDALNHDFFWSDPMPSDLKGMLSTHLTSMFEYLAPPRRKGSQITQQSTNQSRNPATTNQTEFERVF
T1 sequence (O60563 whole entry partner): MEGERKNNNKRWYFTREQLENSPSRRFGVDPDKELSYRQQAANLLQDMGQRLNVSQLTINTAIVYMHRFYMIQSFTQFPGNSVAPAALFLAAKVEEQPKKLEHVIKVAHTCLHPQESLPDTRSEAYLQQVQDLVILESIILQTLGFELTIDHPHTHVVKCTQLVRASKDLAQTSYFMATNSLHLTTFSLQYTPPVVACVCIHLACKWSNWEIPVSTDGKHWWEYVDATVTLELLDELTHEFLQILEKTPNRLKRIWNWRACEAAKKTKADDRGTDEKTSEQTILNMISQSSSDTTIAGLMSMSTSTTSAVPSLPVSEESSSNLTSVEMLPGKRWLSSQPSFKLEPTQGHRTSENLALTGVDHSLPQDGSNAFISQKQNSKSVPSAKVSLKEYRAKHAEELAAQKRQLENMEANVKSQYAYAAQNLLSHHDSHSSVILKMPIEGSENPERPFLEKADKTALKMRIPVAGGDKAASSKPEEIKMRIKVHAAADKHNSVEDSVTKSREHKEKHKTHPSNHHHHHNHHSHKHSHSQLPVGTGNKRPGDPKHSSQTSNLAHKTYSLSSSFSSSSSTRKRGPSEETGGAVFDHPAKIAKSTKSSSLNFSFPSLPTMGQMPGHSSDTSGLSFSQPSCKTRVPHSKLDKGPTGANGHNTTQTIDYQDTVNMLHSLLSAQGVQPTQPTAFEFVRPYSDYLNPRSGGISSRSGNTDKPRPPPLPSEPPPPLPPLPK
From the text: (A) CRIF1 and CDK12 have opposite effects on global RNAPII CTD-Ser2P levels in vivo. U2OS cells were transfected with indicated siRNAs for 48 hr, and RNAPII phosphorylation was monitored by immunoblot using phospho-specific CTD (Ser2P and Ser5P) antibodies. (B) Knockdown of CRIF1 up-regulates CHK1 expression and induction of p53. […] (C) Analysis of steady-state mRNA levels by qRT-PCR in extracts from U2OS cells exposed to control (CTL) or CRIF1-specific siRNAs, as indicated. (D) Depletion of CRIF1 enhances 4E-BP1 phosphorylation at S65 and T70 in vivo, as assessed by immunoblot using phospho-specific antibodies. (E) CRIF1 inhibits RNAPII CTD-Ser2 phosphorylation by CDK12 complexes in vitro. The human GST-CTD (52 repeat) protein was incubated in vitro with the affinity-purified HA-CDK12 kinase complex in the absence or presence of increasing levels of purified recombinant CRIF1, and analyzed by immunoblot with the indicated antisera. […] Analysis of GST-CTD Ser2 phosphorylation was carried out as described in (E), using the affinity-purified FLAG-CDK9 kinase. (G) CRIF1 inhibits 4E-BP1 phosphorylation by CDK12 in vitro. […] was monitored by immunoblot in the absence or in the presence of different levels of affinity-purified recombinant CRIF1. […]

CDK7 = molecular target: T2, CDK7 (Homo sapiens, UniProt P50613); assay: Co-immunoprecipitation of CRIF1 with CDK7; type: binding
T2 construct: endogenous in cells
T2 sequence (P50613 whole entry): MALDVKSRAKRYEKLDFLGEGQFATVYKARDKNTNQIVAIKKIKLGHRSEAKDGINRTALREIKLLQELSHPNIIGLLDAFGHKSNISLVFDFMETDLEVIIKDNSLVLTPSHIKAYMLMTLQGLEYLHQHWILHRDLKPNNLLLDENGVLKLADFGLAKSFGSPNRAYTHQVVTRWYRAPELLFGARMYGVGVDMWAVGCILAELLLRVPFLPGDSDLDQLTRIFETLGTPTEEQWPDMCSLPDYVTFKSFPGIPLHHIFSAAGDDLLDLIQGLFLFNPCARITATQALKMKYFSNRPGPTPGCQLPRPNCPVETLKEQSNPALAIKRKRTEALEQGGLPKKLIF
From the text: (§1) FIGS. 5A-5I. The Mitochondrial OX-PHOS Regulator, CRIF1, is a Novel Subunit of the Human CDK12 Kinase Complex. (A) Identification of CRIF1 as a near-stoichiometric subunit of the native CDK12 kinase complex. MudPIT analysis of CDK12 complexes from HEK293 cells that stably express HA-tagged full-length human CDK12. The HA-CDK12 complex was affinity-purified using anti-HA antibody and visualized by SDS-PAGE and silver-stain. (B) List of the identified proteins in the HA-CDK12 complex from (A). (C) Endogenous CRIF1 co-immunoprecipitates with native CDK12 in U2OS cell extracts. Shown is an immunoblot analysis of CRIF1, CCNK, and the chaperone proteins CDC37 and HSP90 in an anti-CDK12 immunoprecipitate. (D) CRIF1 is a specific subunit of the CDK12 complex. Native CRIF1 was immunoprecipitated from U2OS cells using an anti-CRIF1 antibody and analyzed by co-immunoprecipitation for association with various CDKs, as indicated. […] FLAG-CRIF1 proteins containing different C-terminal truncations were co-expressed with HA-CDK12 (aa 985-1490) and analyzed for binding by co-immunoprecipitation and immunoblot. […] Cell viability was analyzed after 72 hr. […] Expression of the mitochondrial MTCO-1 (COX1) protein was assessed using two different antisera. […] Each fraction (T; total, C:cytosolic, M:membrane/organelle, and N:nuclear) was analyzed by immunoblot using the indicated antibodies. […]

CDK12 = assay: Co-immunoprecipitation of CRIF1 with CDK12; type: binding, human; settings: native complexes
Chain of CDK12 (Q9NYV4 whole entry): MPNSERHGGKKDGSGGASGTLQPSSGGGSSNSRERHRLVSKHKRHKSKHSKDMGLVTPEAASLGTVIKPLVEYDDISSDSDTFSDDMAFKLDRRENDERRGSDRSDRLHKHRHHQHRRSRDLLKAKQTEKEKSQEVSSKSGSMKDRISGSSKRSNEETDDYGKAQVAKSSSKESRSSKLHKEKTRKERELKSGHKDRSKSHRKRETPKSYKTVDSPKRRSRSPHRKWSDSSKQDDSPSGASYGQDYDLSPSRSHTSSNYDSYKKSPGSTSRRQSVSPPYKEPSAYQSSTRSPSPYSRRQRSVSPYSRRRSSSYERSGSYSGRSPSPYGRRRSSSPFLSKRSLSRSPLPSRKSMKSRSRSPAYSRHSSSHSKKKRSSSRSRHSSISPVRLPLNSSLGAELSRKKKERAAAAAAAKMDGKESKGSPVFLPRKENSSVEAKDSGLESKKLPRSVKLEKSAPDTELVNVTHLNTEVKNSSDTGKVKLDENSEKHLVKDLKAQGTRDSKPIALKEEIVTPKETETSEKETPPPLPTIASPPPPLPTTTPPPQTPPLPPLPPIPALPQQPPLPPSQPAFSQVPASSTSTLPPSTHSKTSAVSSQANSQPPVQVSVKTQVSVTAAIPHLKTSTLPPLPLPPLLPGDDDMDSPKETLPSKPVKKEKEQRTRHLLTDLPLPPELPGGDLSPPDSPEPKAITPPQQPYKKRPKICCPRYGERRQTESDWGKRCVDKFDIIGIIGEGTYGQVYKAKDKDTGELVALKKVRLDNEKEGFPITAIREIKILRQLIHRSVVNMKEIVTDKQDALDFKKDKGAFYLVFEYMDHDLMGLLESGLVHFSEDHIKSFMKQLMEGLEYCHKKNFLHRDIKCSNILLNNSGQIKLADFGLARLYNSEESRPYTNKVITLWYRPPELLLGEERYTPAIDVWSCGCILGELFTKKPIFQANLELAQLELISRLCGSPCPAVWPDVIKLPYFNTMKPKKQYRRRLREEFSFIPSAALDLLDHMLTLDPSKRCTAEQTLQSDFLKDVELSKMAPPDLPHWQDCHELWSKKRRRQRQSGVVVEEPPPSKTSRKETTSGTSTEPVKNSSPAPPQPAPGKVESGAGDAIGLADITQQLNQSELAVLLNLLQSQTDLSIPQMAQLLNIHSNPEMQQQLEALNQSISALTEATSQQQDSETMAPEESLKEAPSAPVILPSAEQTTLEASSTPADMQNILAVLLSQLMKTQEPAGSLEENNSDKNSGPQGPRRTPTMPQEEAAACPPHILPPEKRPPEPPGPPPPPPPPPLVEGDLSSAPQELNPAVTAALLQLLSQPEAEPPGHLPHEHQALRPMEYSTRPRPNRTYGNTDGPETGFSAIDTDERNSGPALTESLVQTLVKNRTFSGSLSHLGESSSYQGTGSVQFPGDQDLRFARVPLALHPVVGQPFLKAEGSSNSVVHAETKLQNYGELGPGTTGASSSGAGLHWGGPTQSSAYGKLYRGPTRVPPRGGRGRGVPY
Chain of CDK12 (O75909 whole entry partner): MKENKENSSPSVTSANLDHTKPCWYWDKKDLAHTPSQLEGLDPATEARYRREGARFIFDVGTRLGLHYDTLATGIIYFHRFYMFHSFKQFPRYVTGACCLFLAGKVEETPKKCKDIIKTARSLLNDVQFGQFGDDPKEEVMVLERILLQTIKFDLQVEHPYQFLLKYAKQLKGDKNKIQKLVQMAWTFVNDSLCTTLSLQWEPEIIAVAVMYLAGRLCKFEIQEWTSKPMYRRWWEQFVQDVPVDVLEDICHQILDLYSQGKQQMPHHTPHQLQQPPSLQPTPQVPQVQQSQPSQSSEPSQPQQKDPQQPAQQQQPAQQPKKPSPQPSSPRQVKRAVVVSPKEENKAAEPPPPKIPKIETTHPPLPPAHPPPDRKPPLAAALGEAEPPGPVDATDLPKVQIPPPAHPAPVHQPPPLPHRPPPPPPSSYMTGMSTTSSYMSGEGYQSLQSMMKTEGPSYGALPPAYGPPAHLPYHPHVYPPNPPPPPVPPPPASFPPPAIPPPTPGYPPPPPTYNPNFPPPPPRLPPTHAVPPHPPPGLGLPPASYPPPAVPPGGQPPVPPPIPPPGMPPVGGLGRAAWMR
From the text: as §1, with “(D) CRIF1 is a specific subunit of the CDK12 complex.” left out
It was next evaluated how CRIF1 targets CDK12. […]

Substance: Growth Arrest and DNA Damage-Inducible Proteins-Interacting Protein 1 [CRIF1]
- CDK9/P-TEFb phosphorylation of the GST-CTD substrate ([1]; listed as Recombinant CRIF1): does not inhibit
- CDK9/P-TEFb phosphorylation of the GST-CTD substrate ([1]; listed as rCRIF): no effect
- presence in / binding to CDK7 complexes (CDK7): not present; also recorded: does not bind
- presence of CRIF1 in CDK12 complexes (CDK12): present
